Measurements taken from PMC9860859, “Design, Development, and Optimisation of Smart Linker Chemistry for Targeted Colonic Delivery—In Vitro Evaluation” (Pharmaceutics, 2023).
“And” between values parts separate entries of the source, which are not always exact repeats. Identical values can stand only once. “Also recorded” adds a separate entry of the source.

Experiments:
[1] = cited from earlier work
[2] = In vitro release assay of probes 13–17 by HPLC in buffers simulating the GIT
Method: (§1) Test solutions for probes 13–17 were prepared at 25 µM in a 1:1 mixture of ethanol and the respective buffer. Samples were incubated at 37 °C, then analysed by HPLC using an Agilent 1260 Infinity system, with conditions as follows: Agilent ZORBAX Eclipse Plus C18 Rapid Resolution column, 3.5 μm (4.6 × 100 mm), 95 Å pore size; column temperature, 35 °C; injection volume, 2 μL; flow rate, 1.0 mL min^−1; gradient elution from 5–100% solvent B (0.1% TFA in MeCN) in solvent A (0.1% TFA in ultrapure water) over 9 min, then hold for 1 min at 100% B; UV detection at two wavelengths (254 and 214 nm). The total run time was 10 min, and the retention times of the model compounds CTG and DCM-OH were 4.28 and 6.16 min, respectively. The retention times of probes 13–17 were 4.41, 4.53, 4.58, 5.97, and 6.04 min, respectively. Calibration curves of free fluorophore were constructed at pH values of 1.2, 5.0, 6.5, and 7.5 over the concentration range of 10–100 µM. A concentration of 25 μM was selected to run in the assay as it gave a good instrument response at the selected wavelength. The data at each pH value was fitted by linear regression, yielding equations of the form: y = ax ± b, where y is the peak area and x is the corresponding concentration in µM. Furthermore, the correlation coefficient (R^2) was ≥0.999 in each case, confirming the linearity of the method used under the specified conditions.
(§2) Release assays for probes 13–17 were performed in vitro using pH and temperature conditions chosen to simulate the GIT, with analysis by HPLC. We used KCl/HCl buffer (pH 1.2) and acetate buffer (pH 5.0) to simulate the pH of the stomach and the duodenum, respectively, while PBS (pH 7.5) and phosphate buffer (pH 6.5) were used to mimic the pH of the lower small intestine and the colon. The compounds were dissolved in 1:1 ethanol/buffer and incubated at 37 °C. Aliquots were taken at different time points and analysed by HPLC and LC/MS, as described in Section 2.2. […] Thus, the aforementioned compounds were incubated at pH 1.2 for 5 h to test their stability under conditions simulating the stomach. […] Then, the stability of the probes was tested in simulated duodenum conditions for 30–40 min, reflecting the reported transit time in the duodenum [26].

[3] = design: method as in PMID 33979164; details: cited from earlier work
[4] = design: method as in PMID 33979164; details: cited from earlier work; remark: listed apart in the source
[5] = design: method as in PMID 33979164; details: cited from earlier work; remark: listed apart in the source
[6] = In vitro release of Msl from Msl prodrugs by HPLC in buffers simulating the GIT; assay type: physicochemical; details: for release of Msl: colon-like conditions (pH 6.5); for Msl release / prodrug stability: 37 °C; for prodrug remained intact: simulated upper GIT conditions
Method: We chose Msl as a starting point for putting our prodrug concept into practice. […] Therefore, a new methodology was developed in which prodrug 21 was incubated in 1:1 ethanol/buffer and the HPLC analysis was run with UV detection at 310 nm, as detailed in the Supplementary Materials.
Then, the same compound was incubated at pH 7.5 and 6.5 to measure its stability under conditions mimicking the small intestine and colon, respectively. […] We believed that the formaldehyde released after cyclisation of the linker had initiated the side-reaction according to the mechanism described in detail in Supplementary Materials and supported by literature (Scheme S3).

[7] = as above; assay type: physicochemical; details: pH 7.5, 37 °C, over 2 h, water/buffer 1:1, small intestine-like
[8] = design: method as in PMID 2219958; details: cited from earlier work
[9] = Fluorometric assay of the stability of probes 13 and 16 at pH 7.5 and 6.5; assay type: physicochemical
Source text: page 2: 1. Stability of probe 13 at pH 7.5 and 6.5 using the spectrofluorometric assay. Principal: CTG's fluorescence is reversibly quenched or shifted to another wavelength when the phenol group is conjugated to the pH-sensitive linkers. Upon cyclization of the linker and the release of the free phenol, the fluorescence will be restored (on-mode). Fluorescence can be measured to follow the release of the payload, which is the fluorophore itself. The optical properties of the free fluorophore were measured in 50% DMSO/buffer at pHs 7.5, and 6.5. Since the fluorescence- based assay depends on the difference in fluorescence properties between the free fluorophore and its conjugates, the excitation wavelength must be carefully chosen. […] Secondly, the wavelength that gave a reasonable absorbance rather than maximum absorbance should be chosen to avoid exceeding the detector limits. Finally, a long distance between the excitation and emission wavelengths is preferable to minimize the background fluorescence. Accordingly, the in vitro tests were conducted by measuring the fluorescence at 555 nm after excitation of the probes at 500 nm, as this wavelength achieved the previous requirements. […] The microplate was incubated at 37 °C, and the fluorescence (em: 555 nm, ex: 500 nm) was recorded at every time point until the full release of CTG was obtained. […]

[10] = buffer, pH 5
Method: as §1, §2

[11] = pH 1.2 (KCl/HCl buffer/EtOH 1:1), 5 h, 37 °C, 25 µM, stomach-like

In the case of `Cc1cc(C(=O)O)ccc1-c1c2ccc(=O)cc-2oc2cc(O)ccc12` [CTG, 4-Carboxy-2-methyl Tokyo Green], the pKa [1] is given as 4.33.

For `N#CC(C#N)=C1C=C(/C=C/c2ccc(O)cc2)Oc2ccccc21` [DCM-OH, Dicyanomethylene-4H-pyran dye], the pKa [1] is given as 7.21.

In the case of `Nc1ccc(O)c(C(=O)O)c1` [Msl, Mesalamine], the “pKa of aromatic amino group (–NH3+)” value [1] is given as 6, the “pKa of carboxylic group (–COOH)” value [1] is given as 3 and the “pKa of phenolic group (–OH)” value [1] is given as 13.9.

With `C#CCCCNCCCCOC(=O)OCOc1ccc2c(-c3ccc(C(=O)O)cc3C)c3ccc(=O)cc-3oc2c1.Cl` [Probe 15, N-(4-(((((9-(4-Carboxy-2-methylphenyl)-3-oxo-3H-xanthen-6yl)oxy)methoxy)carbonyl)oxy)butyl)pent-4-yn-1-aminium chloride] the half-life at 25 µM ([2]; PBS, pH 7.5) was 2.4 ± 0.37 h, the half-life at 25 µM ([2]; acetate buffer, pH 5) was > 0.583 h and the “CTG payload released (sustained release)” value ([2]; colon-like conditions (pH 6.5), over 38 h) was > 90%. The “fluorophore release / stability under stomach-like conditions” value ([2]; pH 1.2, 37 °C) was “excellent stability; also recorded: no detectable fluorophore release; also recorded: stable”, the “fluorophore release / stability under duodenum-like conditions” value ([2]; pH 5.0, 37 °C) was “excellent stability; also recorded: no detectable fluorophore release; also recorded: stable” and the half-life at 25 µM ([2]; phosphate buffer, pH 6.5) was 13.2 ± 0.54 h. The “CTG payload protected from being released” value ([2]; small intestine-like conditions, pH 7.5, 2 h) was 60%.

Work on `C#CCCCNCCCOC(=O)OCOc1ccc(/C=C/C2=CC(=C(C#N)C#N)c3ccccc3O2)cc1.Cl` [Probe 17, (E)-N-(3-((((4-(2-(4-(Dicyanomethylene)-4H-chromen-2-yl)vinyl)phenoxy)methoxy)carbonyl)oxy)propyl)pent-4-yn-1-aminium chloride] yielded a half-life at 25 µM ([2]; PBS, pH 7.5) of 0.113 ± 0.012 h, a half-life at 25 µM ([2]; acetate buffer, pH 5) of 16.4 ± 1.52 h and a fluorophore release [2, 11] of 0.5%. For the same compound, the free fluorophore detected ([2]; pH 5.0 (acetate buffer/EtOH 1:1), at 35 min, 37 °C) was 7%, the “time to full fluorophore release” value ([2]; pH 6.5, mimicking the colon, 37 °C) was 170 min and the “time to achieve complete fluorophore release” value ([2]; pH 7.5, small intestine-like, 37 °C) was 40 min. It also gave a half-life at 25 µM ([2]; phosphate buffer, pH 6.5) of 0.467 ± 0.0257 h.

In the case of `CNCCCOC(=O)OCOc1c(-c2ccc(Oc3ccc(OC(F)(F)F)cc3)cc2F)c(C)nc2cc(OC)c(Cl)cc12` [Prodrug 2], the “stability under stomach-like conditions” value [3] is listed as “stable”, the “oral bioavailability compared with the parent drug” value [4] is listed as “enhanced oral bioavailability” and the “aqueous solubility compared with the parent drug” value [5] is listed as “improved aqueous solubility”.

For `C#CCCCNCCCCOC(=O)OCOc1ccc(N)cc1C(=O)O.Cc1ccc(S(=O)(=O)O)cc1.Cc1ccc(S(=O)(=O)O)cc1` [Prodrug 21, 3-Carboxy-4-((((4-(pent-4-yn-1-ylammonio)butoxy)carbonyl)oxy)methoxy)benzeneaminium-di(4-methylbenzenesulfonate)], the “release of Msl” value ([6]; after 24 h) was 36%, the “release of Msl” value ([6]; after 48 h) was 61–68% and 61% and the “release of Msl” value ([6]; after 6 d) was 93%. For the same compound, the “Msl release / prodrug stability” value ([6]; pH 1.2, 5 h, stomach-like) was “no Msl was released”, the “Msl release / prodrug stability” value ([6]; pH 5.0, 35 min, duodenum-like) was “no Msl was released” and the prodrug remained intact [6] was 77–80%. The Msl payload released [7] was 20%.

For `C#CCCCNCCCOC(=O)OCOc1ccc(N)cc1C(=O)O.Cc1ccc(S(=O)(=O)O)cc1.Cc1ccc(S(=O)(=O)O)cc1` [Prodrug 22, 3-Carboxy-4-((((3-(pent-4-yn-1-ylammonio)propoxy)carbonyl)oxy)methoxy)benzeneaminium-di(4-methylbenzenesulfonate)], the “release of Msl” value ([6]; after 48 h) was 61–68% and 68%, the “Msl release / prodrug stability” value ([6]; pH 1.2, 5 h, stomach-like) was “fully intact” and the “Msl release / prodrug stability” value ([6]; pH 5.0, 35 min, duodenum-like) was “fully intact”. The prodrug remained intact [6] was 77–80% and the Msl payload released [7] was 23.5%.

In the case of `CCOC(=O)OC(C)OC1=C(C(=O)Nc2ccccn2)N(C)S(=O)(=O)c2ccccc21` (centres unmarked) [ampiroxicam], the t½ ([8]; pH 1) is listed as ≥ 50 h and the “t½ (hydrolysis)” value ([8]; pH 6.0–8.5) is listed as ≥ 8 h.

For “(E)-N-(3-((((4-(2-(4-(dicyanomethylene)-4H-chromen-2-yl)vinyl)phenoxy)methoxy)carbonyl)oxy)propyl)pent-4-yn-1-aminium chloride [Probe 16]”, the fluorophore release [2, 11] was 3%, the fluorophore release ([2]; pH 5.0 (acetate buffer/EtOH 1:1), 30–40 min, 37 °C, duodenum-like) was ~ 66% and the “time to conversion to the free fluorophore” value ([9]; at both pH 6.5 and pH 7.5, buffer/DMSO 1:1, 37 °C) was ≤ 3 min. The “fluorophore release in fluorometric assay” value ([9]; pH 7.5 and 6.5, buffer/DMSO 1:1, 37 °C) was “released immediately” and the half-life [10] was 0.343 ± 0.0035 h.
